The values that follow come from patent publication US8796452B2, “Preparation of lamivudine form I” (Merck Sharp & Dohme Corp., priority 2010, dated 2014).

The conditions of data set [1]: EtOH-water mixtures at 25° C.; cited from earlier work.
Data set [2] can be described thus: Equilibration of physical mixtures of Forms I, II and III in water-2-butanone solvent systems (most thermodynamically stable crystal form). In kind it is physicochemical. The conditions noted are these: for water content of water-2-butanone mixtures in which Form I is thermodynamically stable: slurry equilibrated by aging. The protocol: Each admixture was then equilibrated by aging at its temperature until the relative amounts of each crystalline form remained constant. At the completion of equilibration, each admixture contained a slurry of a single crystal form, or a slurry in which one crystal form dominates. This crystal form is the most thermodynamically stable at the admixture conditions of temperature and water concentration. Form. […] Similarly, Form I was determined to be thermodynamically stable in water-2-butanone mixtures at about 25° C. when the mixtures contained from 3.5 to 6.0 wt. % water, and at about 50° C. when the mixtures contained from 5.0 to 8.5 wt. % water. Additional data was collected for the boundary between form I and form III; i.e., at 20° C. […] The data are shown in a phase map of temperature versus wt. % water in FIG. 1.

For data set [3] the following is noted: milling, or storage at up to 45° C. at a relative humidity of 25% to 85%; Form I made by the process of WO 2009/069013; cited from earlier work.

Consider `Nc1ccn([C@@H]2CS[C@H](CO)O2)c(=O)n1` [Form I], for which the “water that must be present in EtOH to convert the excess solid to Form I at equilibrium” value in data set [1] is reported as 18-20%. For the same compound, the “water content in 2-butanone at which Form I is more stable than Form III (Form I/Form III boundary)” value in data set [2] (20° C.) is “less than 5.7 wt % water”; in data set [2] (30° C.), “less than 6.6 wt % water”. Further, the “water content of water-2-butanone mixtures in which Form I is thermodynamically stable” value in data set [2] (about 0° C.) lay within 2.5 to 5.0 wt. % water; in data set [2] (about 25° C.), 3.5 to 6.0 wt. % water; in data set [2] (about 50° C.) it was 5.0 to 8.5 wt. % water. Also, the “conversion of Form I to Form II” value in data set [3] is recorded as “will not convert to Form II”.
